For three compounds, mutagenic call results are on record in PubChem BioAssay AID1259407 (Chemical Carcinogenesis Research Information System (CCRIS), 2018).

The data set relates to CCRIS mutagenicity, Ames/micronucleus/aberration tests. Put plainly: CCRIS mutagenicity studies.

Active and inactive are the calls of the source. No rule for the calls is given here.

`COc1ccc(C(Cl)=C(c2ccc(OC)cc2)c2ccc(OC)cc2)cc1`: the mutagenic call (Test System: AMES SALMONELLA TYPHIMURIUM, Strain/Indicator: TA97, Metabolic Activation: HAMSTER, LIVER, S-9, AROCLOR 1254 (10 OR 30%), Method: PREINCUBATION) was “inactive; negative”; the mutagenic call (Test System: AMES SALMONELLA TYPHIMURIUM, Strain/Indicator: TA97, Metabolic Activation: NONE, Method: PREINCUBATION) is “inactive; negative”; the mutagenic call (Test System: AMES SALMONELLA TYPHIMURIUM, Strain/Indicator: TA97, Metabolic Activation: RAT, LIVER, S-9, AROCLOR 1254 (10 OR 30%), Method: PREINCUBATION) was “inactive; negative”; the mutagenic call (Test System: AMES SALMONELLA TYPHIMURIUM, Strain/Indicator: TA98, Metabolic Activation: HAMSTER, LIVER, S-9, AROCLOR 1254 (10 OR 30%), Method: PREINCUBATION) is “inactive; negative”; the mutagenic call (Test System: AMES SALMONELLA TYPHIMURIUM, Strain/Indicator: TA98, Metabolic Activation: NONE, Method: PREINCUBATION) was “inactive; negative”; the mutagenic call (Test System: AMES SALMONELLA TYPHIMURIUM, Strain/Indicator: TA98, Metabolic Activation: RAT, LIVER, S-9, AROCLOR 1254 (10 OR 30%), Method: PREINCUBATION) is “inactive; negative”. In addition, the mutagenic call runs as follows: (Test System: AMES SALMONELLA TYPHIMURIUM, Strain/Indicator: TA100, Metabolic Activation: HAMSTER, LIVER, S-9, AROCLOR 1254 (10 OR 30%), Method: PREINCUBATION) “inactive; negative”; (Test System: AMES SALMONELLA TYPHIMURIUM, Strain/Indicator: TA100, Metabolic Activation: NONE, Method: PREINCUBATION) “inactive; negative”; (Test System: AMES SALMONELLA TYPHIMURIUM, Strain/Indicator: TA100, Metabolic Activation: RAT, LIVER, S-9, AROCLOR 1254 (10 OR 30%), Method: PREINCUBATION) “inactive; negative”; (Test System: AMES SALMONELLA TYPHIMURIUM, Strain/Indicator: TA1535, Metabolic Activation: HAMSTER, LIVER, S-9, AROCLOR 1254 (10 OR 30%), Method: PREINCUBATION) “inactive; negative”; (Test System: AMES SALMONELLA TYPHIMURIUM, Strain/Indicator: TA1535, Metabolic Activation: NONE, Method: PREINCUBATION) “inactive; negative”; (Test System: AMES SALMONELLA TYPHIMURIUM, Strain/Indicator: TA1535, Metabolic Activation: RAT, LIVER, S-9, AROCLOR 1254 (10 OR 30%), Method: PREINCUBATION) “inactive; negative”. Moreover, the mutagenic call is “inactive; negative” (Test System: AMES SALMONELLA TYPHIMURIUM, Strain/Indicator: TA1537, Metabolic Activation: HAMSTER, LIVER, S-9, AROCLOR 1254 (10%), Method: PREINCUBATION); “inactive; negative” (Test System: AMES SALMONELLA TYPHIMURIUM, Strain/Indicator: TA1537, Metabolic Activation: HAMSTER, LIVER, S-9, AROCLOR 1254 (30%), Method: PREINCUBATION); “inactive; negative” (Test System: AMES SALMONELLA TYPHIMURIUM, Strain/Indicator: TA1537, Metabolic Activation: NONE, Method: PREINCUBATION); “inactive; negative” (Test System: AMES SALMONELLA TYPHIMURIUM, Strain/Indicator: TA1537, Metabolic Activation: RAT, LIVER, S-9, AROCLOR 1254 (10 OR 30%), Method: PREINCUBATION).
As for `Nc1ccc(-c2ccc(N)cc2Cl)c(Cl)c1`, the mutagenic call is, setting by setting: (Test System: AMES SALMONELLA TYPHIMURIUM, Strain/Indicator: TA98, Metabolic Activation: HAMSTER, LIVER, S-9, Method: PREINCUBATION (PRIVAL METHOD)) “active; positive”; (Test System: AMES SALMONELLA TYPHIMURIUM, Strain/Indicator: TA98, Metabolic Activation: NONE, Method: PREINCUBATION (PRIVAL METHOD)) “active; positive”; (Test System: UDS HUMAN CELLS, Strain/Indicator: THY INCORP (NON-S-PHASE), Metabolic Activation: RAT, LIVER, S-9, PHENOBARBITAL, Method: LIQUID SCINTILLATION COUNTING) “active; positive”.
Take `Nc1ccc(I)cc1Cl`: the mutagenic call by setting is: (End Point: In vitro chromosomal aberrations, Test System: Chinese hamster lung (CHL/IU) cells, Metabolic Activation: Rat, Liver, S9, Phenobarbital and 5,6-benzoflavone) “active; positive (structural changes). weak response”; (Test System: Ames Salmonella typhimurium, Strain/Indicator: TA98, Metabolic Activation: None, Method: Preincubation) “inactive; negative”; (Test System: Ames Salmonella typhimurium, Strain/Indicator: TA98, Metabolic Activation: Rat, Liver, S9, Sodium phenobarbital and 5,6-benzoflavone (10%), Method: Preincubation) “inactive; negative”; (Test System: Ames Salmonella typhimurium, Strain/Indicator: TA100, Metabolic Activation: None, Method: Preincubation) “inactive; negative”; (Test System: Ames Salmonella typhimurium, Strain/Indicator: TA1535, Metabolic Activation: None, Method: Preincubation) “inactive; negative”; (Test System: Ames Salmonella typhimurium, Strain/Indicator: TA1535, Metabolic Activation: Rat, Liver, S9, Sodium phenobarbital and 5,6-benzoflavone (10%), Method: Preincubation) “inactive; negative”. The mutagenic call was “inactive; negative” (Test System: Ames Salmonella typhimurium, Strain/Indicator: TA1537, Metabolic Activation: None, Method: Preincubation); “inactive; negative” (Test System: Ames Salmonella typhimurium, Strain/Indicator: TA1537, Metabolic Activation: Rat, Liver, S9, Sodium phenobarbital and 5,6-benzoflavone (10%), Method: Preincubation); “inactive; negative” (Test System: E. coli, Strain/Indicator: WP2uvrA/pKM101, Metabolic Activation: None, Method: Preincubation); “inactive; negative” (Test System: E. coli, Strain/Indicator: WP2uvrA/pKM101, Metabolic Activation: Rat, Liver, S9, Sodium phenobarbital and 5,6-benzoflavone (10%), Method: Preincubation).
